Assay results from patent publication US8192962B2, “Processes for detecting toxic substances” (Daikin Industries, Ltd., priority 2001, dated 2012).

Tested on: Stress protein genes
Assay: DNA chip mRNA expression in yeast, stress protein genes (Table 6)
Assay type: cell-based, Saccharomyces cerevisiae S288C
Procedure, shortened: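 Value is the scanned fluorescence intensity ratio of exposed versus chemical-free cells. Log-phase S288C yeast in YPD at 25° C. received one toxic substance for two hours, dosed to slow growth without killing; Cy3/Cy5-labeled cDNA from oligo-dT-purified mRNA was hybridized to a whole-genome chip at 65° C.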

CCCCC[C@H](O)CC(=O)CCc1ccc(O)c(OC)c1 [(13), gingerol]
The level of expressed mRNA in the presence of chemical substance/The level of expressed mRNA in the absence of chemical substance (yeast gene YAL015C): 1.2 | The level of expressed mRNA in the presence of chemical substance/The level of expressed mRNA in the absence of chemical substance (yeast gene YBL093C): 2.1 | The level of expressed mRNA in the presence of chemical substance/The level of expressed mRNA in the absence of chemical substance (yeast gene YBR044C): 1.2 | The level of expressed mRNA in the presence of chemical substance/The level of expressed mRNA in the absence of chemical substance (yeast gene YBR054W): 1.5 | The level of expressed mRNA in the presence of chemical substance/The level of expressed mRNA in the absence of chemical substance (yeast gene YBR067C): 0.9 | The level of expressed mRNA in the presence of chemical substance/The level of expressed mRNA in the absence of chemical substance (yeast gene YBR126C): 2.1 | The level of expressed mRNA in the presence of chemical substance/The level of expressed mRNA in the absence of chemical substance (yeast gene YCL035C): 2.8 | The level of expressed mRNA in the presence of chemical substance/The level of expressed mRNA in the absence of chemical substance (yeast gene YCR021C): 0.9 | The level of expressed mRNA in the presence of chemical substance/The level of expressed mRNA in the absence of chemical substance (yeast gene YCR083W): 1.8 | The level of expressed mRNA in the presence of chemical substance/The level of expressed mRNA in the absence of chemical substance (yeast gene YDL022W): 1.5 | The level of expressed mRNA in the presence of chemical substance/The level of expressed mRNA in the absence of chemical substance (yeast gene YDL025C): 1.2 | The level of expressed mRNA in the presence of chemical substance/The level of expressed mRNA in the absence of chemical substance (yeast gene YDR033W): 0.7 | The level of expressed mRNA in the presence of chemical substance/The level of expressed mRNA in the absence of chemical substance (yeast gene YDR077W): 1.0 | The level of expressed mRNA in the presence of chemical substance/The level of expressed mRNA in the absence of chemical substance (yeast gene YDR098C): 1.2 | The level of expressed mRNA in the presence of chemical substance/The level of expressed mRNA in the absence of chemical substance (yeast gene YDR155C): 3.3 | The level of expressed mRNA in the presence of chemical substance/The level of expressed mRNA in the absence of chemical substance (yeast gene YDR293C): 2.3 | The level of expressed mRNA in the presence of chemical substance/The level of expressed mRNA in the absence of chemical substance (yeast gene YDR513W): 1.8 | The level of expressed mRNA in the presence of chemical substance/The level of expressed mRNA in the absence of chemical substance (yeast gene YDR519W): 2.5 | The level of expressed mRNA in the presence of chemical substance/The level of expressed mRNA in the absence of chemical substance (yeast gene YEL039C): 0.5 | The level of expressed mRNA in the presence of chemical substance/The level of expressed mRNA in the absence of chemical substance (yeast gene YER042W): 1.4 | The level of expressed mRNA in the presence of chemical substance/The level of expressed mRNA in the absence of chemical substance (yeast gene YER057C): 1.0 | The level of expressed mRNA in the presence of chemical substance/The level of expressed mRNA in the absence of chemical substance (yeast gene YER125W): 1.9 | The level of expressed mRNA in the presence of chemical substance/The level of expressed mRNA in the absence of chemical substance (yeast gene YFL014W): 15.2 | The level of expressed mRNA in the presence of chemical substance/The level of expressed mRNA in the absence of chemical substance (yeast gene YFL016C): 2.8 | The level of expressed mRNA in the presence of chemical substance/The level of expressed mRNA in the absence of chemical substance (yeast gene YFL020C): 1.4 | The level of expressed mRNA in the presence of chemical substance/The level of expressed mRNA in the absence of chemical substance (yeast gene YFR052W): 3.8 | The level of expressed mRNA in the presence of chemical substance/The level of expressed mRNA in the absence of chemical substance (yeast gene YGL073W): 1.5 | The level of expressed mRNA in the presence of chemical substance/The level of expressed mRNA in the absence of chemical substance (yeast gene YGL115W): 0.7 | The level of expressed mRNA in the presence of chemical substance/The level of expressed mRNA in the absence of chemical substance (yeast gene YGR088W): 1.2 | The level of expressed mRNA in the presence of chemical substance/The level of expressed mRNA in the absence of chemical substance (yeast gene YHL028W): 2.1 | The level of expressed mRNA in the presence of chemical substance/The level of expressed mRNA in the absence of chemical substance (yeast gene YHL046C): 1.4 | The level of expressed mRNA in the presence of chemical substance/The level of expressed mRNA in the absence of chemical substance (yeast gene YHR030C): 1.0 | The level of expressed mRNA in the presence of chemical substance/The level of expressed mRNA in the absence of chemical substance (yeast gene YHR057C): 1.9 | The level of expressed mRNA in the presence of chemical substance/The level of expressed mRNA in the absence of chemical substance (yeast gene YHR104W): 1.2 | The level of expressed mRNA in the presence of chemical substance/The level of expressed mRNA in the absence of chemical substance (yeast gene YIL011W): 0.5 | The level of expressed mRNA in the presence of chemical substance/The level of expressed mRNA in the absence of chemical substance (yeast gene YIL033C): 2.5 | The level of expressed mRNA in the presence of chemical substance/The level of expressed mRNA in the absence of chemical substance (yeast gene YIR037W): 2.4 | The level of expressed mRNA in the presence of chemical substance/The level of expressed mRNA in the absence of chemical substance (yeast gene YIR038C): 2.5 | The level of expressed mRNA in the presence of chemical substance/The level of expressed mRNA in the absence of chemical substance (yeast gene YJL128C): 1.7 | The level of expressed mRNA in the presence of chemical substance/The level of expressed mRNA in the absence of chemical substance (yeast gene YJL159W): 1.7 | The level of expressed mRNA in the presence of chemical substance/The level of expressed mRNA in the absence of chemical substance (yeast gene YJL165C): 1.5 | The level of expressed mRNA in the presence of chemical substance/The level of expressed mRNA in the absence of chemical substance (yeast gene YJR045C): 2.3 | The level of expressed mRNA in the presence of chemical substance/The level of expressed mRNA in the absence of chemical substance (yeast gene YJR090C): 2.2 | The level of expressed mRNA in the presence of chemical substance/The level of expressed mRNA in the absence of chemical substance (yeast gene YKL161C): 1.3 | The level of expressed mRNA in the presence of chemical substance/The level of expressed mRNA in the absence of chemical substance (yeast gene YKL163W): 1.5 | The level of expressed mRNA in the presence of chemical substance/The level of expressed mRNA in the absence of chemical substance (yeast gene YKL164C): 0.9 | The level of expressed mRNA in the presence of chemical substance/The level of expressed mRNA in the absence of chemical substance (yeast gene YKL210W): 2.9 | The level of expressed mRNA in the presence of chemical substance/The level of expressed mRNA in the absence of chemical substance (yeast gene YKR053C): 0.7 | The level of expressed mRNA in the presence of chemical substance/The level of expressed mRNA in the absence of chemical substance (yeast gene YLL039C): 2.2 | The level of expressed mRNA in the presence of chemical substance/The level of expressed mRNA in the absence of chemical substance (yeast gene YLL060C): 1.8 | The level of expressed mRNA in the presence of chemical substance/The level of expressed mRNA in the absence of chemical substance (yeast gene YLR006C): 0.8 | The level of expressed mRNA in the presence of chemical substance/The level of expressed mRNA in the absence of chemical substance (yeast gene YLR109W): 3.2 | The level of expressed mRNA in the presence of chemical substance/The level of expressed mRNA in the absence of chemical substance (yeast gene YLR259C): 2.5 | The level of expressed mRNA in the presence of chemical substance/The level of expressed mRNA in the absence of chemical substance (yeast gene YML007W): 1.7 | The level of expressed mRNA in the presence of chemical substance/The level of expressed mRNA in the absence of chemical substance (yeast gene YMR021C): 1.4 | The level of expressed mRNA in the presence of chemical substance/The level of expressed mRNA in the absence of chemical substance (yeast gene YMR173W): 2.0 | The level of expressed mRNA in the presence of chemical substance/The level of expressed mRNA in the absence of chemical substance (yeast gene YMR186W): 2.4 | The level of expressed mRNA in the presence of chemical substance/The level of expressed mRNA in the absence of chemical substance (yeast gene YNL064C): 1.1 | The level of expressed mRNA in the presence of chemical substance/The level of expressed mRNA in the absence of chemical substance (yeast gene YNR076W): 0.9 | The level of expressed mRNA in the presence of chemical substance/The level of expressed mRNA in the absence of chemical substance (yeast gene YOL064C): 2.0 | The level of expressed mRNA in the presence of chemical substance/The level of expressed mRNA in the absence of chemical substance (yeast gene YOL161C): 1.2 | The level of expressed mRNA in the presence of chemical substance/The level of expressed mRNA in the absence of chemical substance (yeast gene YOR008C): 0.9 | The level of expressed mRNA in the presence of chemical substance/The level of expressed mRNA in the absence of chemical substance (yeast gene YOR010C): 0.5 | The level of expressed mRNA in the presence of chemical substance/The level of expressed mRNA in the absence of chemical substance (yeast gene YOR027W): 5.1 | The level of expressed mRNA in the presence of chemical substance/The level of expressed mRNA in the absence of chemical substance (yeast gene YOR208W): 1.5 | The level of expressed mRNA in the presence of chemical substance/The level of expressed mRNA in the absence of chemical substance (yeast gene YPL059W): 0.7 | The level of expressed mRNA in the presence of chemical substance/The level of expressed mRNA in the absence of chemical substance (yeast gene YPL106C): 3.1 | The level of expressed mRNA in the presence of chemical substance/The level of expressed mRNA in the absence of chemical substance (yeast gene YPL140C): 0.9 | The level of expressed mRNA in the presence of chemical substance/The level of expressed mRNA in the absence of chemical substance (yeast gene YPL194W): 1.4 | The level of expressed mRNA in the presence of chemical substance/The level of expressed mRNA in the absence of chemical substance (yeast gene YPL223C): 2.3 | The level of expressed mRNA in the presence of chemical substance/The level of expressed mRNA in the absence of chemical substance (yeast gene YPL240C): 2.9 | The level of expressed mRNA in the presence of chemical substance/The level of expressed mRNA in the absence of chemical substance (yeast gene YPR005C): 0.7 | The level of expressed mRNA in the presence of chemical substance/The level of expressed mRNA in the absence of chemical substance (yeast gene YPR026W): 2.3
